Data published in patent US20240228458A1, “PYRIMIDINE DERIVATIVE HAVING PROTEIN KINASE INHIBITORY ACTIVITY, AND THERAPEUTIC PHARMACEUTICAL COMPOSITION COMPRISING SAME” (THERAPEX CO., LTD., priority 2021, published 2024).

Legend:
Type in all cases: cell-based
[1] = test system: Ba/F3 cells expressing L858R/T790M (EGFR-LT); test: Growth inhibition (GI50) of Ba/F3 cells expressing L858R/T790M (EGFR-LT), Celltiter glo; settings: Mus musculus, BaF3, 72 h
Procedure, shortened: (§1)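 Steps: plate engineered Ba/F3 cells (100,000 cells/ml); wait 4 h; add compound as a 4-fold, 10-point dilution series made from 2 mM stock, DMSO 0.5%; incubate 72 h at 37 °C under 5% CO2; measure ATP-based viability with CellTiter-Glo; calculate GI50.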

[2] = test system: Ba/F3 cells expressing del19/T790M/C797S (EGFR-DTC); test: Growth inhibition (GI50) of Ba/F3 cells expressing del19/T790M/C797S (EGFR-DTC), Celltiter glo; settings: Mus musculus, BaF3, 72 h
Procedure, shortened: as §1

[3] = test system: Ba/F3 cells expressing EGFR-wt; test: Growth inhibition (GI50) of Ba/F3 cells expressing EGFR-wt, Celltiter glo; settings: Mus musculus, BaF3, 72 h
Procedure, shortened: as §1

[4] = test system: Ba/F3 cells expressing del19/T790M (EGFR-DT); test: Growth inhibition (GI50) of Ba/F3 cells expressing del19/T790M (EGFR-DT), Celltiter glo; settings: Mus musculus, BaF3, 72 h
Procedure, shortened: as §1

[5] = test system: Ba/F3 cells expressing L858R/T790M/C797S (EGFR-LTC); test: Growth inhibition (GI50) of Ba/F3 cells expressing L858R/T790M/C797S (EGFR-LTC), Celltiter glo; settings: Mus musculus, BaF3, 72 h
Procedure, shortened: as §1

[6] = test system: parental Ba/F3 cell line; test: Growth inhibition (GI50) of the parental Ba/F3 cell line (not introduced with EGFR variants), Celltiter glo; settings: Mus musculus, BaF3, 72 h, parental Ba/F3 cells
Procedure, shortened: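 Parental Ba/F3 cells (100,000 cells/ml) were treated with 10-point, 4-fold compound dilutions (0.5% DMSO; top stock 2 mM) for 72 h at 37 °C, 5% CO2. Viability was read by CellTiter-Glo; GI50 is the concentration (μM) giving 50% growth inhibition.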

GI50 [1] [nM]	GI50 [2] [nM]	GI50 [3] [nM]	GI50 [4] [nM]	GI50 [5] [nM]	SMILES	GI50 [6] [nM]
25 to 100	25 to 100	100 to 500	25 to 100	25 to 100	COc1cc(N2CCC(N3CCCN(C)CC3)CC2)c(C)cc1Nc1ncc(Cl)c(Nc2cc3c(cc2N(C)S(C)(=O)=O)CCO3)n1 [Example 265, N-(6-((5-chloro-2-((2-methoxy-5-methyl-4-(4-(4-methyl-1,4-diazepan-1-yl)piperidin-1-yl)phenyl)amino)pyrimidin-4-yl)amino)-2,3-dihydrobenzofuran-5-yl)-N-methylmethanesulfonamide]	500 to 2000
100 to 500	500 to 2000	2000 to 10000	25 to 100	100 to 500	COc1cc(N2CCC(N3CCN(C4CC4)CC3)CC2)c(C)cc1Nc1ncc(Cl)c(Nc2cc3c(cc2N(C)S(C)(=O)=O)CCO3)n1 [Example 266, N-(6-((5-chloro-2-((4-(4-(4-cyclopropylpiperazin-1-yl)piperidin-1-yl)-2-methoxy-5-methylphenyl)amino)pyrimidin-4-yl)amino)-2,3-dihydrobenzofuran-5-yl)-N-methylmethanesulfonamide]	2000 to 10000
25 to 100	100 to 500	500 to 2000	25 to 100	25 to 100	COc1cc(N2CCC(N3CCCC(N(C)C)C3)CC2)c(C)cc1Nc1ncc(Cl)c(Nc2cc3c(cc2N(C)S(C)(=O)=O)CCO3)n1 (stereo not drawn) [Example 267, N-(6-((5-chloro-2-((4-(3-(dimethylamino)-[1,4′-bipiperidin]-1′-yl)-2-methoxy-5-methylphenyl)amino)pyrimidin-4-yl)amino)-2,3-dihydrobenzofuran-5-yl)-N-methylmethanesulfonamide]	500 to 2000
25 to 100	100 to 500	500 to 2000	25 to 100	100 to 500	CN1CCN(C2CCN(c3cc(F)c(Nc4ncc(Cl)c(Nc5cc6c(cc5NS(C)(=O)=O)CCO6)n4)cc3F)CC2)CC1 [Example 268, N-(6-((5-chloro-2-((2,5-difluoro-4-(4-(4-methylpiperazin-1-yl)piperidin-1-yl)phenyl)amino)pyrimidin-4-yl)amino)-2,3-dihydrobenzofuran-5-yl)methanesulfonamide]	2000 to 10000
1 to 25	1 to 25	500 to 2000	1 to 25	1 to 25	COc1cc(N2CCC(N3CCN(C)CC3)CC2)c(Br)cc1Nc1ncc(Cl)c(Nc2cc3c(cc2NS(C)(=O)=O)CCO3)n1 [Example 270, N-(6-((2-((5-Bromo-2-methoxy-4-(4-(4-methylpiperazin-1-yl)piperidin-1-yl)phenyl)amino)-5-chloropyrimidin-4-yl)amino)-2,3-dihydrobenzofuran-5-yl)methanesulfonamide]	500 to 2000
1 to 25	1 to 25	2000 to 10000	1 to 25	1 to 25	COc1cc(N2CCC(N3CCN(C)CC3)CC2)c(Br)cc1Nc1ncc(Br)c(Nc2cc3c(cc2NS(C)(=O)=O)CCO3)n1 [Example 271, N-(6-((2-((5-bromo-2-methoxy-4-(4-(4-methylpiperazin-1-yl)piperidin-1-yl)phenyl)amino)-5-bromopyrimidin-4-yl)amino)-2,3-dihydrobenzofuran-5-yl)methanesulfonamide]	2000 to 10000
500 to 2000	500 to 2000	2000 to 10000	500 to 2000	500 to 2000	COc1cc(N2CCC(N3CCN(C)CC3)CC2)c(C)cc1Nc1ncc(Cl)c(Nc2ccc3c(c2)N(C)CC3)n1 [Example 272]	2000 to 10000

The next lines start with the compound.

SMILES	GI50 [1] [nM]	GI50 [2] [nM]	GI50 [3] [nM]	GI50 [4] [nM]	GI50 [5] [nM]	GI50 [6] [nM]
CN1CCN(C2CCN(c3cc(Cl)c(Nc4ncc(Br)c(Nc5cc6c(cc5N(C)S(C)(=O)=O)CCO6)n4)cc3Cl)CC2)CC1 [Example 253, N-(6-((5-bromo-2-((2,5-dichloro-4-(4-(4-methylpiperazin-1-yl)piperidin-1-yl)phenyl)amino)pyrimidin-4-yl)amino)-2,3-dihydrobenzofuran-5-yl)-N-methylmethanesulfonamide]	25 to 100	1 to 25	500 to 2000	25 to 100	25 to 100	100 to 500
CCc1cc(Nc2ncc(Br)c(Nc3cc4c(cc3N(C)S(C)(=O)=O)CCO4)n2)c(OC)cc1N1CCC(N2CCN(C)CC2)CC1 [Example 254, N-(6-((5-bromo-2-((5-ethyl-2-methoxy-4-(4-(4-methylpiperazin-1-yl)piperidin-1-yl)phenyl)amino)pyrimidin-4-yl)amino)-2,3-dihydrobenzofuran-5-yl)-N-methylmethanesulfonamide]	25 to 100	1 to 25	500 to 2000	1 to 25	25 to 100	500 to 2000
COc1cc(N2CCC(N3CCN(C(F)(F)F)CC3)CC2)c(C)cc1Nc1ncc(Br)c(Nc2cc3c(cc2N(C)S(C)(=O)=O)CCO3)n1 [Example 255, N-(6-((5-bromo-2-((2-methoxy-5-methyl-4-(4-(4-(trifluoromethyl)piperazin-1-yl)piperidin-1-yl)phenyl)amino)pyrimidin-4-yl)amino)-2,3-dihydrobenzofuran-5-yl)-N-methylmethanesulfonamide]	100 to 500	25 to 100	2000 to 10000	25 to 100	100 to 500	2000 to 10000
COc1cc(N2CCC(N3CCN(C)CC3)CC2)c(F)cc1Nc1ncc(Br)c(Nc2cc3c(cc2N(C)S(C)(=O)=O)CCO3)n1 [Example 256, N-(6-((5-bromo-2-((5-fluoro-2-methoxy-4-(4-(4-methylpiperazin-1-yl)piperidin-1-yl)phenyl)amino)pyrimidin-4-yl)amino)-2,3-dihydrobenzofuran-5-yl)-N-methylmethanesulfonamide]	100 to 500	25 to 100	100 to 500	1 to 25	100 to 500	100 to 500
CN1CCN(C2CCN(c3cc(Cl)c(Nc4ncc(Cl)c(Nc5cc6c(cc5N(C)S(C)(=O)=O)CCO6)n4)cc3Cl)CC2)CC1 [Example 259, N-(6-((5-chloro-2-((2,5-dichloro-4-(4-(4-methylpiperazin-1-yl)piperidin-1-yl)phenyl)amino)pyrimidin-4-yl)amino)-2,3-dihydrobenzofuran-5-yl)-N-methylmethanesulfonamide]	25 to 100	1 to 25	500 to 2000	25 to 100	100 to 500	500 to 2000
COc1ccc(N(C)S(C)(=O)=O)c(Nc2nc(Nc3cc(C)c(N4CCC(N5CCN(C)CC5)CC4)cc3OC)ncc2Cl)c1 [Example 260, N-(2-((5-chloro-2-((2-methoxy-5-methyl-4-(4-(4-methylpiperazin-1-yl)piperidin-1-yl)phenyl)amino)pyrimidin-4-yl)amino)-4-methoxyphenyl)-N-methylmethanesulfonamide]	25 to 100	100 to 500	100 to 500	1 to 25	100 to 500	2000 to 10000
COc1cc(N2CCC(N3CCN(C4CC4)CC3)CC2)c(C)cc1Nc1ncc(Br)c(Nc2cc3c(cc2N(C)S(C)(=O)=O)CCO3)n1 [Example 261, N-(6-((5-bromo-2-((4-(4-(4-cyclopropylpiperazin-1-yl)piperidin-1-yl)-2-methoxy-5-methylphenyl)amino)pyrimidin-4-yl)amino)-2,3-dihydrobenzofuran-5-yl)-N-methylmethanesulfonamide]	25 to 100	100 to 500	25 to 100	1 to 25	25 to 100	2000 to 10000
COc1cc(N2CCC(N3CCC(N(C)C)C3)CC2)c(C)cc1Nc1ncc(Br)c(Nc2cc3c(cc2N(C)S(C)(=O)=O)CCO3)n1 (stereo not drawn) [Example 262, N-(6-((5-bromo-2-((4-(4-(3-(dimethylamino)pyrrolidin-1-yl)piperidin-1-yl)-2-methoxy-5-methylphenyl)amino)pyrimidin-4-yl)amino)-2,3-dihydrobenzofuran-5-yl)-N-methylmethanesulfonamide]	25 to 100	25 to 100	100 to 500	1 to 25	25 to 100	25 to 100
Cc1cc(Nc2ncc(Cl)c(Nc3cc4c(cc3N(C)S(C)(=O)=O)CCO4)n2)c(Cl)cc1N1CCC(N2CCN(C)CC2)CC1 [Example 263, N-(6-((5-chloro-2-((2-chloro-5-methyl-4-(4-(4-methylpiperazin-1-yl)piperidin-1-yl)phenyl)amino)pyrimidin-4-yl)amino)-2,3-dihydrobenzofuran-5-yl)-N-methylmethanesulfonamide]	100 to 500	500 to 2000	500 to 2000	100 to 500	100 to 500	> 10000
COc1cc(N2CCC(N3CCCN(C)CC3)CC2)c(Cl)cc1Nc1ncc(Cl)c(Nc2cc3c(cc2N(C)S(C)(=O)=O)CCO3)n1 [Example 264, N-(6-((5-chloro-2-((5-chloro-2-methoxy-4-(4-(4-methyl-1,4-diazepan-1-yl)piperidin-1-yl)phenyl)amino)pyrimidin-4-yl)amino)-2,3-dihydrobenzofuran-5-yl)-N-methylmethanesulfonamide]	1 to 25	25 to 100	100 to 500	1 to 25	25 to 100	2000 to 10000
